Experimental data as given in PMC11232398, “Antimalarial activity of cecropin antimicrobial peptides derived from Anopheles mosquitoes” (Antimicrobial Agents and Chemotherapy, 2024).
Like-named read-outs stand apart in the source and are kept apart here.

Legend:
[1] = system: P. falciparum 3D7 (sensitive strain); assay: In vitro antimalarial activity, 3-day inhibition assay; assay type: cell-based, Plasmodium falciparum
Protocol: Blood stages of the laboratory clones P. falciparum 3D7 (sensitive strain), P. falciparum 803 (artemisinin-resistant strain), and P. falciparum Dd2 (chloroquine-resistant strain) were cultured in vitro according to the method of Trager and Jensens with minor modifications ([37]). Briefly, cultures were maintained in O-positive human erythrocytes (RBCs) as host cells at 2% hematocrit and maintained in complete medium (CM) [RPMI-1640 culture medium supplemented with NaHCO3 (2 mg/mL), hypoxanthine (50 µg/mL), HEPES (5.96 mg/mL), albumax II (1%), and gentamicin (40 µg/mL)]. The cultures were diluted to 1% parasitemia and 2% hematocrit in CM and incubated in a humidified atmosphere with 5% O2, 5% CO2, and 90% N2 at 37°C. Prior to experiments, the cultures were highly synchronized for ring stages using 5% sorbitol twice at a 40-h interval. Briefly, ring stage cultures were centrifuged and the pellet was washed once in incomplete medium (ICM, RPMI-1640 without addition). Then, the pellet was resuspended in 5% sorbitol and incubated at 37°C for 10 min. After incubation, the suspension was centrifuged and the pellet was washed once and resuspended in medium. The development of the parasite was observed using light microscopy, and parasitemia was determined by counting at least 10,000 RBCs on Giemsa’s solution-stained thin blood smears.
Highly synchronous ring stage parasites were used to investigate the in vitro antimalarial activity of the peptides. For preliminary screening of in vitro antimalarial activity, a 3-day inhibition assay was used to test the antimalarial activity of An-cecA, An-cecB, and An-cecC. […] For IC50 assay, a series of concentrations of peptides were added to the parasite culture. The concentrations of An-cecB were 5, 15, 20, 25, 30, 35, and 40 µM, while those of An-cecB-1 were 20, 30, 40, 50, 60, 70, 80, and 90 µM. After 72 hours of incubation, the antimalarial effects of peptides were estimated. Thin blood films stained with Giemsa’s solution were counted under a microscope. The parasitemia of cultures treated with peptides was compared with that of control. IC50 was calculated by GraphPad Prism.

[2] = system: Plasmodium falciparum 3D7; assay: Transmission electron microscope analysis of parasite morphology; assay type: cell-based; settings: TEM
Protocol: 3D7 strain parasites with parasitemia of 3% ~ 5% at a hematocrit of 2% were planted in 12-well plates, 3 mL/well. A 40-µM concentration of An-cecB or 200 µM An-cecB-1 was added and incubated for 30 min or 60 min. PBS was used as a control.
After incubation, the parasites were washed three times with ICM, and the electron microscope fixative solution (provided by the company) was added to keep the parasites clumped for 2 hours at room temperature. Finally, the samples were sent to a commercial company at 4°C for transmission electron microscope analysis.

[3] = system: RBCs infected by schizonts of P. falciparum 3D7; assay: Hemolytic activity on RBCs infected by schizonts; assay type: cell-based, human; settings: percoll-purified 3D7 schizonts, 2% hematocrit in PBS
Protocol: To test the hemolytic activity of the peptides against RBCs infected by Plasmodium, schizonts of the P. falciparum 3D7 strain were collected. The parasite culture of mainly schizonts was centrifuged and resuspended to 50% hematocrit. Then, the resuspended culture was carefully laid on top of the gradient with 3 mL 70% and 3 mL 40% percoll-sorbitol solution. After centrifugation at 2,300 × g for 20 min at 20°C, schizonts from the 40/70% interface were collected and washed twice with 10× volume of ICM. The collected parasites were resuspended in PBS to 2% hematocrit for hemolysis assay as described above.

[4] = system: Escherichia coli (ATCC 25922); assay: Antimicrobial assay, broth dilution; assay type: cell-based; settings: E. coli
Protocol: (§1) Gram-positive bacteria S. aureus, B. subtilis, and Gram-negative E. coli were used in antimicrobial assays. Bacteria were first grown in LB (Luria-Bertani) broth to an absorbance of 0.8 at 600 nm. The antibacterial behavior of the peptides was studied via the agar disc diffusion assay and broth microdilution method ([41], [42]). The agar plates were made by pouring 20 mL of LB broth containing 1.5% agar into 60-mm Petri dishes. Then, a 100-µL bacterial suspension (10^6 CFU/mL) was spread over the LB agar plate. Ten microliters of the 2-mg/mL peptide sample was carefully dropped onto sterile 2-mm diameter paper discs that had been previously attached to the plate. The plates were carefully placed in an incubator at 37°C for 24 hours. If an examined sample had antimicrobial activity, a clear zone was observed around the filter paper representing inhibition of bacterial growth. The MIC was determined by the broth dilution method, and the absorbance value was measured at an optical density at 600 nm (OD600) to determine the inhibition rate of peptides at different concentrations against each bacteria. Then, the MIC at which no visible growth occurred was recorded ([38]). The MIC50 was calculated by GraphPad Prism.

[5] = system: Bacillus subtilis (ATCC); assay: Antimicrobial assay, broth dilution; assay type: cell-based; settings: B. subtilis
Protocol: as §1

[6] = system: Staphylococcus aureus (ATCC 6538); assay: Antimicrobial assay, broth dilution; assay type: cell-based; settings: S. aureus
Protocol: as §1

[7] = system: HEK293T cells
Protocol: The mammalian cell lines HepG2 and HEK293T were used for cytotoxicity tests. The cells were cultured in Dulbecco’s modified Eagle medium supplemented with 10% fetal bovine serum and 1% penicillin/streptomycin in an incubator at 37°C with 5% CO2. Cells were seeded at a density of 1 × 10^5 cells/mL per well into a 96-well plate overnight and treated with different concentrations of peptides for 48 hours. To analyze the CC50 of peptides, a series of concentrations of peptides (0, 5, 10, 20, 30, 40, 50, 60, and 70 µM) were set to detect their cytotoxic concentrations. Then, 10% CCK-8 solution was added into each well and incubated for another 2 hours. The absorbance was monitored by a microplate reader at 450 nm. PBS was used as a negative control and the inhibition of each drug was normalized to that of the PBS control. CC50 was calculated by GraphPad Prism. Two independent assays with three technical replicates each time were conducted.

[8] = system: Plasmodium berghei (ANKA); assay type: in vivo; settings: parasitemia on day 4, BALB/c mice
Protocol: The in vivo antimalarial activity of peptides was evaluated using a 4-day suppressive test in P. berghei-infected mouse model mice ([44]). The mice were divided into five groups of six mice. Donor mice were infected with 200 µL of P. berghei parasite inoculum by intraperitoneal injection. Parasitized blood was collected from the tail vein of donor mice and diluted with 0.9% sodium chloride solution. Mice were then infected with saline suspension of 1 × 10^7 parasitized erythrocytes (0.2 mL) by intraperitoneal injection (Day0). Four hours after infection, each of the three groups of mice was treated with peptide by intraperitoneal injection at daily doses of 10, 25, and 50 mg/kg for 4 consecutive days. Positive control mice were treated with chloroquine at daily doses of 10 mg/kg and negative control mice with normal saline. On day 4 (96 hours post infection), the parasitemia of each mouse was determined under a light microscope by examination of Giemsa’s solution-stained thin blood smears prepared from mouse tail blood ([28]). The mean parasitemia in each group of mice was used to calculate the % suppression for each dose using the following formula:
%suppression = (parasitemia of negative control − parasitemia of test) * 100/parasitemia of negative control.
The antimalarial activity of the peptides was determined from the ratio of the percentage of parasite reduction in treated and negative control groups ([44]). Results were expressed as median (range) values.

[9] = system: methyl-β-cyclodextrin-treated RBCs; assay: Hemolytic activity on cholesterol-depleted erythrocytes; assay type: cell-based, human; settings: RBCs treated with 7.5 mM methyl-β-cyclodextrin for 2 hours at 37°C
Excerpt: Cholesterol is the main component of the RBC membrane and is important for maintaining its stability ([39]). Plasmodium falciparum infection efficiently depletes the red blood cells of cholesterol, which renders […] membranes susceptible to lysis ([40]). Therefore, methyl-β-cyclodextrin treatment was used to simulate the RBC cholesterol depletion caused by infection with Plasmodium. RBCs were washed once and then resuspended with PBS at 0.5% hematocrit. After treatment with the indicated concentration (7.5 mM) of methyl-β-cyclodextrin (Sigma) in RPMI for 2 hours at 37°C, the treated RBCs were washed with PBS and hemolysis assays were performed as described above. Two independent tests with five technical replicates were performed for each hemolysis assay.

[10] = 200 µM peptide, 3D7, Giemsa smears
[11] = 40 µM An-cecB or 200 µM An-cecB-1, total 20 / 22
[12] = 50 µM peptide, 72 h, ring stage, 1% parasitemia, 2% hematocrit, Giemsa smears

In the case of “APRWKFGKRLEKLGRNVF-NH2 [An-cecB-1, truncated peptide of An-cecB, anterior part]”, the inhibition rate [1, 10] is reported as 83.67%, the IC50 ([1]; 3D7, 72 h incubation, Giemsa smears, GraphPad Prism, two independent assays, three technical replicates) is reported as 68.6 µM and the “Normal (number of parasites)” value ([2]; 40 µM An-cecB or 200 µM An-cecB-1, 30 or 60 min, total 20 (An-cecB), 22 (An-cecB-1)) is reported as 7. For the same substance, the “Disintegration (number of parasites)” value [2, 11] was 0, the “Parasite disoriented (number of parasites)” value [2, 11] was 0 and the “Parasite membrane dissolution (number of parasites)” value [2, 11] was 2. The “Parasite shrunken (number of parasites)” value [2, 11] was 15, the “Vacuole formation (number of parasites)” value [2, 11] was 7 and the “hemolytic activity to infected erythrocytes” value [3] was “did not”. For the same substance, the MIC ([4]; OD600) was 25 µM, the MIC50 ([4]; OD600, GraphPad Prism) was 12.7 µM and the MIC ([5]; OD600) was 25 µM. The MIC50 ([5]; OD600, GraphPad Prism) was 18.94 µM, the MIC ([6]; OD600) was > 200 µM and the MIC50 ([6]; OD600, GraphPad Prism) was > 200 µM. For the same substance, the “cytotoxicity to HEK293T cells” value [7] was “No cytotoxicity”, the “Inhibition (%) of P. berghei growth” value ([8]; 10 mg/kg daily i.p. for 4 consecutive days) was 17.03% and the “Inhibition (%) of P. berghei growth” value ([8]; 25 mg/kg daily i.p. for 4 consecutive days) was 39.35%. For the same substance, the “Inhibition (%) of P. berghei growth” value ([8]; 50 mg/kg daily i.p. for 4 consecutive days) was 54.19% and the “hemolysis of cholesterol-depleted erythrocytes” value [9] was “no hemolysis effect”.
GKRLEKLGRNVFRAAKK-NH2 [An-cecB-3] was tested, and the inhibition rate [1, 10] was 24.74% and the “cytotoxicity to HEK293T cells” value [7] was “No cytotoxicity”.
Substance “GRLKKLGKKIEGAGKRVFKAA EKALPVVAGVKAL-NH2 [An-cecA]” has an inhibition rate [1, 12] of 18.7%.
With RAAKKALPVIAGYKAL-NH2 [An-cecB-2] the inhibition rate [1, 10] was 12.14% and the “cytotoxicity to HEK293T cells” value [7] was “No cytotoxicity”.
For “RRFKKFLKKVEGAGRRVANAA QKGLPLAAGVKGL-NH2 [An-cecC]”, the inhibition rate [1, 12] was 40.16%.
